Measured values published in US6646129B2, “Cyanoguanidines as cell proliferation inhibitors” (Leo Pharmaceutical Products Ltd. A/S, priority 1997, dated 2003).
pIC50: −log10 of the molar value.

Assays:
Type in all cases: cell-based
[1] = system: human breast cancer (MCF-7) cell line; assay: Inhibition of tumour cell proliferation in vitro, [3H]thymidine incorporation, MCF-7; details: MCF-7 cells, 24 hours with compound, DNA synthesis by [3H]thymidine incorporation
Method: (§1) The inhibition of tumour cell proliferation was studied using different types of human cancer cell lines. The cell lines under investigation were small cell lung carcinoma (NYH), non small cell lung carcinoma (NCl-H460), and breast cancer (MCF-7) using the following general procedure:
(§2) The cells were cultured in vitro for 24 hours in the presence of the compound under investigation. DNA synthesis was measured by incorporation of [^3H]thymidine, and the median inhibitory concentrations (IC50) of the compounds were calculated.

[2] = system: human non small cell lung cancer (NCI-H460) cell line; assay: Inhibition of tumour cell proliferation in vitro, [3H]thymidine incorporation, NCI-H460; details: NCI-H460 cells, 24 hours with compound, DNA synthesis by [3H]thymidine incorporation
Method: as §1, §2

[3] = system: human small cell lung carcinoma (NYH) cell line; assay: Inhibition of tumour cell proliferation in vitro, [3H]thymidine incorporation, NYH; details: NYH cells, 24 hours with compound, DNA synthesis by [3H]thymidine incorporation
Method: as §1, §2

For `CC(C)(C)OC(=O)NCCCCCCCCCCCCNC(=Nc1ccncc1)NC#N` [Example No. 1, N-(1 2-t-Butoxycarbonylaminododecyl)-N′-cyano-N″-4-pyridylguanidine], the pIC50 ([1]; Homo sapiens, MCF7) was 8.44, the pIC50 ([2]; Homo sapiens) was 7.35 and the pIC50 ([3]; Homo sapiens) was 9.21.

In the case of `N#CNC(=NCCCCCCCCCCCOC1CCCCO1)Nc1ccncc1` (stereo not drawn) [Example No. 7, N-Cyano-N′-4-pyridyl-N″-(11-tetrahydropyranyloxyundecanyl)guanidine], the pIC50 [1] was 8.38, the pIC50 [2] was 8.34 and the pIC50 [3] was 9.29.

For `CCP(=O)(CC)OCCCCCCCCCCCNC(=Nc1ccncc1)NC#N` [Example No. 8, N-Cyano-N′-(11-diethylphosphinoyloxyundecanyl)-N″-4-pyridylguanidine], the pIC50 ([1]; Homo sapiens, MCF7) was 8.77, the pIC50 ([2]; Homo sapiens) was 8.22 and the pIC50 ([3]; Homo sapiens) was 9.32.
